Series [1] concerns the target T1, MET (wt) GST-tagged recombinant human MET kinase domain (Homo sapiens, UniProt P08581).
T1 construct: GST-tagged recombinant human MET kinase domain; purchased Signal Chem
The series can be described thus: c-Met Enzyme Assay, wild type (LanthaScreen Eu Kinase Binding). Particulars: averaged IC50; MET (wt) 10 nM; 60-minute incubation at 22° C.; read-out: SigChem WT IC50. How it is done: The affinity of compound binding to wild type and mutant human MET kinases was measured using Invitrogen's LanthaScreen™ Eu Kinase Binding technology. Briefly, GST-tagged recombinant human MET kinase domain from Signal Chem (see Table 8 below for concentration in assay) was incubated with 50 nM Alexa-Fluor® Tracer 236 (Invitrogen Cat No. PR9078A) and 2 nM Europium-anti-GST (Invitrogen Cat. No. A15116) along with test compound in a buffer consisting of 25 mM HEPES, pH 7.4, 10 mM MgCl2, 0.01% Triton X-100, 1mM DTT, and 2% DMSO. Compounds were typically prepared in a three-fold serial dilution in DMSO and added to the assay to give the appropriate final concentration. After a 60-minute incubation at 22° C., the reaction was measured using a PerkinElmer EnVision multimode plate reader via TR-FRET dual wavelength detection, and the percent of control (POC) calculated using a ratiometric emission factor. […] The POC values were fit to a 4 parameter logistic curve and the IC50 value is point where the curve crosses 50 POC.

In a further series the target is T2, MDR1 (P-gp) (Homo sapiens, UniProt P08183).
T2 construct: expressed in transfected cells; host or cells: LLC-PK1
The series can be described thus: MDR1 LLC-PK1 permeability assay. Type of series: in vitro ADME. The conditions noted are these: pig, MDR1 transfected LLC-PK1 cells; for Papp at 2 h, 1 μM: permeability coefficient (Papp). On the procedure:
MDR1 transfected LLC-PK1 cells were cultured and plated according to manufacturer's recommendations with the exception that the passage media contained only 2% fetal bovine serum to extend passage time out to seven days.
Both positive and negative controls were used to assess functionality of P-gp efflux in the assay. Stock solutions for assay controls and the test article were prepared in DMSO for final test concentrations of 10 and 1 μM, respectively. Final organic concentration in the assay was 1%. All dosing solutions contained 10 μM lucifer yellow to monitor LLC-PK1 cell monolayer integrity.
For the apical to basolateral determination (A to B), 75 μL of the test article in transport buffer were added to the apical side of the individual transwells and 250 μL of basolateral media, without compound or lucifer yellow, were added to each well. For the basolateral to apical determination (B to A), 250 μL of test article in transport buffer were added to each well and 75 μL transport buffer, without compound or lucifer yellow, were added to each transwell. All tests were performed in triplicate, and each compound was tested for both apical to basolateral and basolateral to apical transport. The plates were incubated for 2 hours on a Lab-Line Instruments Titer Orbital Shaker (VWR, West Chester, Pa.) at 50 rpm and 37° C. with 5% CO2. All culture plates were removed from the incubator and 50 μL of media were removed from the apical and basolateral portion of each well and added to 150 μL of 1 μM labetalol in 2:1 acetonitrile (acetonitrile): H2O, v/v.
The plates were read using a Molecular Devices (Sunnyvale, Calif.) Gemini Fluorometer to evaluate the lucifer yellow concentrations at excitation/emission wavelengths of 425/535 nm. These values were accepted when found to be below 2% for apical to basolateral and 5% basolateral to apical flux across the MDR1-transfected LLC-PK1-transfected cell monolayers. The plates were sealed and the contents of each well analyzed by LC-MS/MS. The compound concentrations were determined from the ratio of the peak areas of the compound to the internal standard (labetalol) in comparison to the dosing solution.
The LC-MS/MS system was comprised of an HTS-PAL autosampler (Leap Technologies, Carrboro, N.C.), an HP1200 HPLC (Agilent, Palo Alto, Calif.), and a MDS Sciex 4000 Q Trap system (Applied Biosystems, Foster City, Calif.). […] The total run time, including re-equilibration, for a single injection was 1.2 minutes. Mass spectrometric detection of the analytes was accomplished using the ion spray positive mode. Analyte responses were measured by multiple reaction monitoring (MRM) of transitions unique to each compound (the protonated precursor ion and selected product ions for each test article and m/z 329 to m/z 162 for labetalol, the internal standard).
The permeability coefficient (Papp) is calculated from the following equation: […]
where Cd, V, t and C0 are the detected concentration (μM), the volume on the dosing side (mL), the incubation time (s) and the initial dosing concentration (μM), respectively. The calculations for Papp were made for each replicate and then averaged. In this assay, a compound is defined has having high permeability if the permeability is greater than 8×10^−6 cm/sec, a compound is defined has having medium permeability if the permeability is from 2×10^−6 cm/sec to 8×10^−6 cm/sec, and a compound is defined has having low permeability if the permeability is less than 2×10^−6 cm/sec.
An efflux ratio was calculated from the mean apical to basolateral (A-B) Papp data and basolateral to apical (B-A) Papp data:
Efflux ratio=Papp(B−A)/Papp(A−B)

Series [2] has as its target T3, His-tagged recombinant human AXL cytoplasmic domain (Homo sapiens, UniProt P30530).
T3 construct: His-tagged recombinant human AXL cytoplasmic domain
T3 sequence (P30530 473-894 limits assumed): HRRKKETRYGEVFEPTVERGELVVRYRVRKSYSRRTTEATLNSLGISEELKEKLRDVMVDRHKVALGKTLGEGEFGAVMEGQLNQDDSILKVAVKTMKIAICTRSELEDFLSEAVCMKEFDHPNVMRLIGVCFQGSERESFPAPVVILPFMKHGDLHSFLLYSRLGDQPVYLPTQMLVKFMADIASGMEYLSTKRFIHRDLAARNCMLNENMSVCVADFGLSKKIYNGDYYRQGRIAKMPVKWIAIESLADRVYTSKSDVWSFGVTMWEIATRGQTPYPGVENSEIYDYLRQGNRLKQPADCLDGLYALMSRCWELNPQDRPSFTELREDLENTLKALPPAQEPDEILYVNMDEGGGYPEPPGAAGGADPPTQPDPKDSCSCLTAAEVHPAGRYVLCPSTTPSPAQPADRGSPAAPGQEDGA
The series can be described thus: AXL Enzyme Assay (LanthaScreen Eu Kinase Binding). The conditions noted are these: averaged IC50; 60-minute incubation at 22° C.; TR-FRET. In outline:
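TR-FRET binding-displacement format: 20 nM Alexa Fluor Tracer 236, 2 nM biotin-anti-His and 2 nM Eu-streptavidin in 25 mM HEPES pH 7.4, 10 mM MgCl2, 0.01% Triton X-100, 2% DMSO. After 60 min at 22 °C, ratiometric percent of control was fitted to a 4-parameter logistic curve, IC50 taken at 50 POC.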

Where [3] appears, read: LLC-PK1, efflux ratio = Papp(B-A)/Papp(A-B), read-out: MDR1 Pe Ratio.
Where [4] appears, read: LLC-PK1, Papp(B−A)/Papp(A−B), test article 1 μM, 2 hours, 37° C., read-out: Efflux ratio.

The record followed here is patent US20200216416A1, “QUINOLINE COMPOUNDS AS INHIBITORS OF TAM AND MET KINASES” (Array BioPharma Inc., priority 2019, published 2020).

The structures appear in SMILES notation. pIC50: −log10 of the molar value. Read-outs that look alike come from different tables or passages of the source. A value given as a limit tells only on which side of the number the result lay.

T2 sequence (P08183 whole entry): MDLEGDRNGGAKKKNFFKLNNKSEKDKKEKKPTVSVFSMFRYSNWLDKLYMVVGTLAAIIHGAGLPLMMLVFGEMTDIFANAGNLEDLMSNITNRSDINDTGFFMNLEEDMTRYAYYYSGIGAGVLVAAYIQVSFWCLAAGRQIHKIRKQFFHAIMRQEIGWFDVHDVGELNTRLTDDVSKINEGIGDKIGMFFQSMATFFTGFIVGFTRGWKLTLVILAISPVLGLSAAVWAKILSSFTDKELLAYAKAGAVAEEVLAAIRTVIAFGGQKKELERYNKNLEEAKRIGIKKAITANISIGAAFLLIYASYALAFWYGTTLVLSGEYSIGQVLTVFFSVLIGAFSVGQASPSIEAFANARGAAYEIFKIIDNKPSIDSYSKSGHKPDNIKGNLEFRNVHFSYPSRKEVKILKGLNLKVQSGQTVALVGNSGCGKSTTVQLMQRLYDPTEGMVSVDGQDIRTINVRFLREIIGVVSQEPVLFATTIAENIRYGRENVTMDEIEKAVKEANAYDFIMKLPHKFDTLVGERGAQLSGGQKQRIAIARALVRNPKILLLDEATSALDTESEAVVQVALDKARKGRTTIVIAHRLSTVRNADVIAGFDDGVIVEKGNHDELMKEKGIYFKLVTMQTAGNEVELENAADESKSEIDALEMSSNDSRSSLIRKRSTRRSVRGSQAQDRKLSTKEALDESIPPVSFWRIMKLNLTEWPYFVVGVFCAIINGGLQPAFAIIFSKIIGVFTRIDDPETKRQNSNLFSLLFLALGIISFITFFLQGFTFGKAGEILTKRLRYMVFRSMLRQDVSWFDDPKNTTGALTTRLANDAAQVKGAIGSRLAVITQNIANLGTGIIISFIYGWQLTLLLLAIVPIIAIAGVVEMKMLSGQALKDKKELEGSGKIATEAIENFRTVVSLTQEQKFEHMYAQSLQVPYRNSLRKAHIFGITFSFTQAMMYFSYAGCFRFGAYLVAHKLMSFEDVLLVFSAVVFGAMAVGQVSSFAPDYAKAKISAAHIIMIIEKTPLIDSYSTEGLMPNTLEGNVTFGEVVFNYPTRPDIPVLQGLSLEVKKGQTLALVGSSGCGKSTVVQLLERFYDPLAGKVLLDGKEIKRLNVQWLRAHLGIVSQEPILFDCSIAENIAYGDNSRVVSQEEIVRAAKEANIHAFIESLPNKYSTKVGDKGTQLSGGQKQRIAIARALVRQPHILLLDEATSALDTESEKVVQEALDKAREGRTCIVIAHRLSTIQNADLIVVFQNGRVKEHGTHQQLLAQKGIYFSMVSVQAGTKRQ
T1 sequence (P08581 1078-1345 limits assumed): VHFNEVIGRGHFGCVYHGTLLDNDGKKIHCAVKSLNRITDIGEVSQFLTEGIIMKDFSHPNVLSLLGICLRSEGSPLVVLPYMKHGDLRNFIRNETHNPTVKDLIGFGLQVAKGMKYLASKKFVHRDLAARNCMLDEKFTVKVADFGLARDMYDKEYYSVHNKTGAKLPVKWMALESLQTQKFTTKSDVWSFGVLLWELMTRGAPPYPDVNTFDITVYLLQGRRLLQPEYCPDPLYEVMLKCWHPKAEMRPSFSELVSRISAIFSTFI

`COc1cc2nccc(Oc3ccc(NC(=O)c4cn(CCN(C)C)cc(-c5ccc(F)c(F)c5)c4=O)nc3)c2cc1OC` [Example 43, 5-(3,4-difluorophenyl)-N-(5-((6,7-dimethoxyquinolin-4-yl)oxy)pyridin-2-yl)-1-]: the figures for the pIC50 in series [1] and in series [2] were 8.85 and 8.70, respectively. The efflux ratio at 2 h, 1 μM at MDR1 (P-gp) (setting [3]) turned out to be 13.
The matching figures for `COc1ccc2nccc(Oc3ccc(NC(=O)c4cn(CCN(C)C)cc(-c5ccc(F)cc5)c4=O)nc3)c2c1` [Example 47]: 7.99, 9.00 and 9.3.
Regarding `COc1cc2nccc(Oc3ccc(NC(=O)c4cn(C(C)C)c(C)c(-c5ccc(F)cc5)c4=O)nc3)c2cc1OC` [Example 27, N-(5-((6,7-dimethoxyquinolin-4yl)oxy)pyridin-2-yl)-5-(4-fluorophenyl)-1-isopropyl-6-methyl-4-oxo-1,4-dihydropyridine-3-carboxamide], the negative logarithm of the IC50 (pIC50) in series [1] was 8.74; in series [2] it was 9.00. Also, the efflux ratio at 2 h, 1 μM on MDR1 (P-gp) (setting [3]) came to 5.5. For the same molecule, the apparent permeability coefficient (Papp) at 2 h, 1 μM at MDR1 (P-gp) is 16 ×10⁻⁶ cm/s.
Take `COc1cc2nccc(Oc3ccc(NC(=O)c4cn(CC(=O)N(C)C)cc(-c5ccc(F)c(F)c5)c4=O)nc3)c2cc1OC` [Example 24, 5-(3,4-difluorophenyl)-N-(5-((6,7-dimethoxyquinolin-4-yl)oxy)pyridin-2-yl)-1-(2-(dimethylamino)-2-oxoethyl)-4-oxo-1,4-dihydropyridine-3-carboxamide]: the values for the pIC50 in series [1] and in series [2] were 8.11 and 9.00, respectively. For the same molecule, on MDR1 (P-gp) (setting [3]), the efflux ratio at 2 h, 1 μM was determined as 210. The molecule also displayed a Papp at 2 h, 1 μM on MDR1 (P-gp) of 9.5 ×10⁻⁶ cm/s.
Taken in the same sequence, the figures for `COc1cc2nc(C)cc(Oc3ccc(NC(=O)c4cn(C(C)C)cc(-c5ccc(F)cc5)c4=O)nc3)c2cc1OC` [Example 53, N-(5-((6,7-dimethoxy-2-methylquinolin-4-yl)oxy)pyridin-2-yl)-5-(4-fluorophenyl)-1-isopropyl-4-oxo-1,4-dihydropyridine-3-carboxamide] were 5.51, 6.35, 3.4 and 5 ×10⁻⁶ cm/s.
Taken in the same sequence, the figures for `COc1cc2nccc(Oc3cnc(NC(=O)c4cn(C(C)C)c(C)c(-c5ccc(F)cc5)c4=O)nc3)c2cc1OC` [Example 55, N-(5-((6,7-dimethoxyquinolin-4-yl)oxy)pyrimidin-2-yl)-5-(4-fluorophenyl)-1-isopropyl-6-methyl-4-oxo-1,4-dihydropyridine-3-carboxamide] were 8.55, 8.70, 144 and 8 ×10⁻⁶ cm/s.
For `CCc1c(-c2ccc(F)cc2)c(=O)c(C(=O)Nc2ccc(Oc3ccnc4cc(OC)c(OC)cc34)cn2)cn1C(C)C` [Example 29, N-(5-((6,7-dimethoxyquinolin-4yl)oxy)pyridin-2-yl)-6-ethyl-5-(4-fluorophenyl)-1-isopropyl-4-oxo-1,4-dihydropyridine-3-carboxamide], the figures for the negative logarithm of the IC50 (pIC50) in series [1] and in series [2] were 8.37 and 9.00, respectively. At MDR1 (P-gp) (setting [3]), the efflux ratio at 2 h, 1 μM worked out at 3.6. The molecule also showed an apparent permeability (Papp) at 2 h, 1 μM on MDR1 (P-gp) of 10 ×10⁻⁶ cm/s.
As to `COc1cc2nccc(Oc3ccc(NC(=O)c4cn(CC5CCOCC5)cc(-c5ccc(F)cc5)c4=O)nc3)c2cc1OC` [Example 8, N-(5-((6,7-dimethoxyquinolin-4-yl)oxy)pyridin-2-yl)-5-(4-fluorophenyl)-4-oxo-1-((tetrahydro-2H-pyran-4-yl)methyl)-1,4-dihydropyridine-3-carboxamide], the negative logarithm of the IC50 (pIC50) is 8.39 in series [1] and 8.70 in series [2]. Moreover, the efflux ratio at 2 h, 1 μM at MDR1 (P-gp) (setting [3]) came to 10. The apparent permeability coefficient (Papp) at 2 h, 1 μM at MDR1 (P-gp) was determined as 9 ×10⁻⁶ cm/s.
`COc1cc(-c2cn(C(C)C)cc(C(=O)Nc3ccc(Oc4ccnc5cc(OC)c(OC)cc45)cn3)c2=O)ccc1F` [Example 20, N-(5-((6,7-dimethoxyquinolin-4yl)oxy)pyridin-2-yl)-5-(4-fluoro-3-methoxyphenyl)-1-isopropyl-4-oxo-1,4-dihydropyridine-3-carboxamide]: the pIC50 in series [1] is 8.28; in series [2], 8.52. Moreover, at MDR1 (P-gp) (setting [3]), the efflux ratio at 2 h, 1 μM is 3.6. This molecule also yielded a Papp at 2 h, 1 μM on MDR1 (P-gp) of 9 ×10⁻⁶ cm/s.
On to `COc1cc2nccc(Oc3ccc(NC(=O)c4cn(C5CCOCC5)cc(-c5ccc(F)cc5)c4=O)nc3)c2cc1OC` [Example 12, N-(5((6,7-dimethoxyquinolin-4-yl)oxy)pyridin-2-yl)-5-(4-fluorophenyl)-4-oxo-1-(tetrahydro-2H-pyran-4-yl)-1,4-dihydropyridine-3-carboxamide], for which the pIC50 was 8.27 in series [1] and 8.70 in series [2]. In addition, the efflux ratio at 2 h, 1 μM on MDR1 (P-gp) (setting [3]) was found to be 15. On MDR1 (P-gp), this molecule displayed a Papp at 2 h, 1 μM of 13 ×10⁻⁶ cm/s.
For the molecule `COc1cc2nccc(Oc3ccc(NC(=O)c4cn(CCC(C)C)cc(-c5ccc(F)c(F)c5)c4=O)nc3)c2cc1OC` [Example 35, 5-(3,4-difluorophenyl)-N-(5-((6,7-dimethoxyquinolin-4yl)oxy)pyridin-2-yl)-1-isopentyl-4-oxo-1,4-dihydropyridine-3-carboxamide], the pIC50 in series [1] was 7.86; in series [2], 8.22. For the same molecule, on MDR1 (P-gp) (setting [4]), the efflux ratio at 2 h, 1 μM is 3.5. At MDR1 (P-gp), this molecule displayed an apparent permeability coefficient (Papp) at 2 h, 1 μM below 1 ×10⁻⁶ cm/s.
As to `COc1cc2nccc(Oc3ccc(NC(=O)c4cn(C(C)C)cc(-c5ccc(F)cc5)c4=O)nc3)c2cc1OC` [Example 1], the pIC50 was 8.62 in series [1] and 9.00 in series [2]. The results for the efflux ratio at 2 h, 1 μM at MDR1 (P-gp) (setting [4]) and at MDR1 (P-gp) (setting [3]) were 3.5 and 3.2, respectively. This molecule also returned a Papp at 2 h, 1 μM at MDR1 (P-gp) of 10 ×10⁻⁶ cm/s.
